Experiments:
Test in all cases: relative viability (nuclei count vs DMSO), 5 days (fraction); higher = more cells survive
[1] = compound: C1/C(=C\C2=CC=CS2)/C(=O)/C(=C/C3=CC=CS3)/C1 + COc1cc2c(Oc3ccc(NC(=O)C4(C(=O)Nc5ccc(F)cc5)CC4)cc3F)ccnc2cc1OCCCN1CCOCC1 [Foretinib] (partner 0.25 µM)
In short: (§1)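 Cells from lung cancer lines were seeded into 1536-well plates and, one day later, dosed by pin tool. Treatments were either a single drug or a fixed dose of an anchor drug with five library-drug doses (not always all listed) in √10 steps. After 5 days, nuclei were stained in a one-step fixation (final 0.05% Triton X-100, 1% formaldehyde, 1 ug/ml Hoechst) and counted on 4× images, and relative viability is the treated-to-vehicle nuclei ratio, as the median of duplicate plates.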

[2] = compound: C1=CC(=CC=C1C2=CC(=C(S2)NC(=O)N)C(=O)N)F [TPCA-1] + Cc1nc(NC(=O)N2CCC[C@H]2C(N)=O)sc1-c1ccnc(C(C)(C)C(F)(F)F)c1 [Alpelisib] (partner 2 µM)
In short: as §1

[3] = compound: C[C@]12O[C@H](C[C@]1(O)CO)n1c3ccccc3c3c4c(c5c6ccccc6n2c5c31)CNC4=O [Lestaurtinib] + CC(=O)Nc1cccc(-n2c(=O)n(C3CC3)c(=O)c3c(Nc4ccc(I)cc4F)n(C)c(=O)c(C)c32)c1 [Trametinib] (partner 0.02 µM)
In short: as §1

[4] = compound: C1=CC(=CC=C1C2=CC(=C(S2)NC(=O)N)C(=O)N)F [TPCA-1] + CC1(C)CCC(c2ccc(Cl)cc2)=C(CN2CCN(c3ccc(C(=O)NS(=O)(=O)c4ccc(N[C@H](CCN5CCOCC5)CSc5ccccc5)c(S(=O)(=O)C(F)(F)F)c4)cc3)CC2)C1 [Navitoclax] (partner 0.5 µM)
In short: as §1

Cell Line | relative viability ([1]; first compound 0.2 µM) | relative viability ([1]; first compound 0.6325 µM) | relative viability ([1]; first compound 2 µM) | relative viability ([1]; first compound 6.325 µM) | relative viability ([1]; first compound 20 µM) | relative viability ([2]; first compound 0.04 µM) | relative viability ([2]; first compound 0.1265 µM) | relative viability ([2]; first compound 0.4 µM) | relative viability ([2]; first compound 1.265 µM) | relative viability ([2]; first compound 4 µM) | relative viability ([3]; first compound 0.005 µM) | relative viability ([3]; first compound 0.01581 µM) | relative viability ([3]; first compound 0.05 µM) | relative viability ([3]; first compound 0.1581 µM) | relative viability ([3]; first compound 0.5 µM) | relative viability ([4]; first compound 0.04 µM) | relative viability ([4]; first compound 0.1265 µM) | relative viability ([4]; first compound 0.4 µM) | relative viability ([4]; first compound 1.265 µM) | relative viability ([4]; first compound 4 µM)
LCLC-103H | 0.804 | 0.8 | 0.787 | 0.668 | 0.732 | 1.06 | 0.901 | 0.992 | 1 | 1.03 | 0.717 | 0.741 | 0.609 | 0.592 | 0.678 | – | – | – | – | –
NCI-H358 | 0.668 | 0.742 | 0.761 | – | 0.631 | 1 | 0.65 | 0.911 | 0.55 | 0.364 | 0.139 | 0.119 | 0.157 | 0.103 | 0.0891 | – | – | – | – | –
NCI-H522 | – | – | – | – | – | – | – | – | – | – | 0.786 | 0.786 | 0.752 | 0.701 | 0.537 | – | – | – | – | –
NCI-H650 | 1.02 | 0.926 | 0.933 | 0.945 | 0.999 | 1.11 | 1.02 | 1.02 | 0.633 | 0.859 | 0.88 | 1.03 | 0.886 | 0.522 | 0.34 | – | – | – | – | –
NCI-H661 | 1.05 | 1.02 | 1.02 | 0.993 | 1 | 1.01 | 0.2 | 0.768 | 0.546 | 0.487 | 0.609 | 0.633 | 0.508 | 0.607 | 0.321 | – | – | – | – | –
NCI-H1299 | 1.17 | 1.12 | 1.1 | 1.03 | 1.11 | 1.11 | 1.09 | 1.05 | 1.04 | 1.1 | – | – | – | – | – | 1.08 | 1.02 | 1.02 | 1.04 | 1.07
